Publication PMC9767876, “Development of a robust and convenient dual-reporter high-throughput screening assay for SARS-CoV-2 antiviral drug discovery” (Antiviral Research, 2023)
Read-outs that look alike come from different tables or passages of the source.

Columns and labels:
[1] = tested on: SARS-CoV-2_mNeonGreen virus (Wuhan strain); assay: microbe, parasite or virus in culture; assay type: cell-based; settings: for EC50: read-out: EC50 Mean ± SD (antiviral activity)
in vitro = settings: human
[2] = tested on: A549+hACE2+hTMPRSS2_mCherry cells
[3] = Severe acute respiratory syndrome coronavirus 2

Row | SMILES | EC50 [1, 3] [nM] | CC50 (in vitro) [nM] | EC50 [1] [nM] | selectivity index (SI) [1] | CC50 [2] [nM]
1 | C/C=C/C[C@@H](C)[C@@H](O)[C@H]1C(=O)N[C@@H](CC)C(=O)N(C)[C@H](C)C(=O)N(CC)[C@@H](C(C)C)C(=O)N[C@@H](C(C)C)C(=O)N(C)[C@@H](CC(C)C)C(=O)N[C@@H](C)C(=O)N[C@H](C)C(=O)N(C)[C@@H](CC(C)C)C(=O)N(C)[C@@H](CC(C)C)C(=O)N(C)[C@@H](C(C)C)C(=O)N1C [Alisporivir] | 1460 ± 130 | 23800 ± 4750 | – | – | –
2 | CCn1c(CO)nn(-c2cc(O[C@@H](C)C(F)(F)F)c(C(=O)Nc3c(F)cccc3Cl)cc2F)c1=O [BAY-2402234] | – | – | 5 ± 1 | – | –
3 | CN(C)C(=O)COC(=O)Cc1ccc(OC(=O)c2ccc(NC(=N)N)cc2)cc1 [Camostat] | > 50000 | > 50000 | – | – | –
4 | Cn1cnc(Cn2c(=O)[nH]/c(=N\c3cc4cn(C)nc4cc3Cl)n(Cc3cc(F)c(F)cc3F)c2=O)n1 [Ensitrelvir] | 260 ± 43 | > 50000 | – | – | –
5 | N#C[C@@]1(c2ccc3c(N)ncnn23)O[C@H](CO)[C@@H](O)[C@H]1O [GS-441524] | 1660 ± 420 | > 50000 | – | > 30 | –
6 | CC(C)C(=O)OC[C@H]1O[C@@H](n2ccc(NO)nc2=O)[C@H](O)[C@@H]1O [Molnupiravir] | 1260 ± 230 | > 50000 | – | – | –
7 | CC(C)(C)[C@H](NC(=O)C(F)(F)F)C(=O)N1C[C@H]2[C@@H]([C@H]1C(=O)N[C@H](C#N)C[C@@H]1CCNC1=O)C2(C)C [Nirmatrelvir] | 120 ± 17 | > 50000 | – | – | –
8 | COc1cccc2[nH]c(C(=O)N[C@@H](CC(C)C)C(=O)N[C@@H](C[C@@H]3CCNC3=O)C(=O)CO)cc12 [PF-00835231] | – | – | 430 ± 80 | > 115 | > 50000
9 | CCC(CC)COC(=O)[C@H](C)N[P@](=O)(OC[C@H]1O[C@@](C#N)(c2ccc3c(N)ncnn23)[C@H](O)[C@@H]1O)Oc1ccccc1 [Remdesivir] | 40 ± 5 | > 50000 | – | – | –
